Measured values: PubChem BioAssay (NCI)
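Values below derive from 48-hour exposures of cells grown in 96-well plates, with endpoints linearly interpolated between the two concentrations bracketing the appropriate inhibition level. The concentration for 50% growth inhibition is given as GI50. The concentration for full growth arrest is given as TGI.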

Columns and labels:
Experiment in all cases: NCI tumour cell line growth inhibition, 48 h
XF 498 CNS = test system: XF 498 CNS
KM20L2 colon = test system: KM20L2 colon
DMS 273 small cell lung = test system: DMS 273 small cell lung
HOP-18 NSCLC = test system: HOP-18 NSCLC
DLD-1 colon = test system: DLD-1 colon
M19-MEL melanoma = test system: M19-MEL melanoma
LXFL 529 NSCLC = test system: LXFL 529 NSCLC
RXF-631 renal = test system: RXF-631 renal
P388/ADR leukemia = test system: P388/ADR leukemia
P388 leukemia = test system: P388 leukemia
SN12K1 renal = test system: SN12K1 renal

SMILES	TGI (XF 498 CNS) [µM]	TGI (KM20L2 colon) [µM]	TGI (DMS 273 small cell lung) [µM]	TGI (HOP-18 NSCLC) [µM]	TGI (DLD-1 colon) [µM]	TGI (M19-MEL melanoma) [µM]	TGI (LXFL 529 NSCLC) [µM]	further results
CN(C)CCSC(=Nc1ccccc1)N1CCCCC1	30	31.7	31.1	33.5	31.5	31.2	29.4	
c1ccc2c(c1)nc(NC1CCCC1)c1[nH]c(C3CCCC3)nc12	34.4	20.8	22.3	45.5	> 100	27.7	22.8	
O=C(N/N=C/c1cc(Cl)cc(Cl)c1[O-])c1ccccc1O.O=C(N/N=C/c1cc(Cl)cc(Cl)c1[O-])c1ccccc1O.[Ni+2]		2.15						GI50 (KM20L2 colon): 0.794 µM
N#C[S-].[Nd+3].c1ccc(-c2ccccn2)nc1.c1ccc(-c2ccccn2)nc1.c1ccc(-c2ccccn2)nc1		6.08	19.5		> 100	54		GI50 (KM20L2 colon): 2.38 µM; GI50 (DMS 273 small cell lung): 3.23 µM; GI50 (DLD-1 colon): 3.45 µM; GI50 (M19-MEL melanoma): 9.78 µM
COc1cccc(Cc2c3cc(OC)ccc3cc[n+]2C)c1	70.7	> 100			> 100		> 100	
O=C1Nc2cc([N+](=O)[O-])ccc2NC1/C(=N\Nc1ccccc1)C(O)c1cccc([N+](=O)[O-])c1 (stereo not given)	> 100	> 100	> 100		> 100	> 100	> 100	TGI (RXF-631 renal): > 100 µM
C/C(=N\NC(N)=S)C(CN(CC(C)C)CC(C)C)C(=O)Nc1ccc(C)cc1C (stereo not given)	> 100	> 100	> 100	> 100	> 100	> 100	> 100	
Cc1cc(S(=O)(=O)O)c(NC(=O)C(=O)C2C=CCS2(=O)=O)cc1Cl (stereo not given)	> 100	> 100	> 100	> 100	> 100	> 100	> 100	
Cc1cccc(C2=NC(C)(C)C(C)(C)N=C2c2cccc(C)n2)n1	> 100	> 100	> 100	> 100	> 100	> 100	> 100	TGI (RXF-631 renal): > 100 µM
CCCCOP1(=O)C=C(C)C(=C(Cl)Cl)C(C)=C1 (stereo not given)	46.2	5.13	16.6	82.2	38.9	32.9		TGI (RXF-631 renal): 33.9 µM
c1ccc2c(c1)CCc1cc3cc4c(nc3nc1-2)-c1ccccc1CC4			> 100		> 100	> 100	> 100	
COc1cccc(/C=N/[N-]C(N)=O)c1[O-].[Ni+2].[OH3+].c1cnc2c(c1)ccc1cccnc12		> 100						
C=C1C(=O)OCC2C(C(=O)O)=CC3C(C)C(C)=CC123 (stereo not given)	24.8	51.1	59.6	34.2	45.7	54.6		TGI (P388/ADR leukemia): 21.9 µM; TGI (P388 leukemia): 12.7 µM; TGI (SN12K1 renal): 29.6 µM
O=[Se](=O)c1ccccc1.O=[Se](=O)c1ccccc1.[Cu]	28.9	35.1	38.3	41.1	40.5	15.2		GI50 (XF 498 CNS): 15.5 µM; GI50 (KM20L2 colon): 18.3 µM; GI50 (DMS 273 small cell lung): 20.4 µM; GI50 (P388/ADR leukemia): 3.99 µM; TGI (P388/ADR leukemia): 24.4 µM; GI50 (HOP-18 NSCLC): 23.4 µM; GI50 (P388 leukemia): 5.23 µM; TGI (P388 leukemia): 29 µM; GI50 (SN12K1 renal): 7.41 µM; TGI (SN12K1 renal): 17.6 µM; GI50 (DLD-1 colon): 18.9 µM; GI50 (M19-MEL melanoma): 5.95 µM
NCCNc1cccc2ccccc12		> 100	> 100	> 100	> 100	> 100	> 100	TGI (RXF-631 renal): > 100 µM
O=C1c2c(nc3ccccc3c2-c2ccccc2)CN1Nc1ccccn1	> 100		> 100		> 100	> 100	> 100	TGI (RXF-631 renal): 50.7 µM
CC(=O)O[C@]12CCCC1C1(O)C(O)CCCC12 (stereo not given in full)	> 100	> 100	> 100	> 100		> 100	> 100	
